The record followed here is US9944749B2, “Polycarbonates” (Valspar Sourcing, Inc., priority 2012, dated 2018).

Where two headings read alike, the source gives them in different places.

Assay [1] has as its system MCF-7, clone WS8, cells. The experiment in a line: MCF-7 cell proliferation assay of estrogenic activity. The format is cell-based, human.
For assay [2], the target named is T1, human estrogen receptor (Homo sapiens, UniProt P03372).
T1 sequence (P03372 1-595): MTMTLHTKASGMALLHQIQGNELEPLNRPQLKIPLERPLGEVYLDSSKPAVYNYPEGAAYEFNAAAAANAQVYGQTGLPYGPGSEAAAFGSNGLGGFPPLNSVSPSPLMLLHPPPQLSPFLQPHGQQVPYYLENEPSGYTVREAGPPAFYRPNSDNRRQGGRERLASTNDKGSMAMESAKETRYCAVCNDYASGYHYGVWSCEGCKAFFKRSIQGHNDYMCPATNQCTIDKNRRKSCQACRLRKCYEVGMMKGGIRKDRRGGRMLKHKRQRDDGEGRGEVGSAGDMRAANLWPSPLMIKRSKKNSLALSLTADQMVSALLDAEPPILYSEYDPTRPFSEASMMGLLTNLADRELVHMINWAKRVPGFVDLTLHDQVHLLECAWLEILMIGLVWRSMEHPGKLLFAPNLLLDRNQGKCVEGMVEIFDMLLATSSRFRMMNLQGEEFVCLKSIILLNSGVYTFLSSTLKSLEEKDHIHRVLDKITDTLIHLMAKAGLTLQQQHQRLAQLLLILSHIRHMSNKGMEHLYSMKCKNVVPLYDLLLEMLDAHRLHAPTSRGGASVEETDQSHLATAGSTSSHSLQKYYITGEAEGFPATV
Kind of assay: suitable in vitro assay whose results are directly correlated to the MCF-7 cell proliferation assay. The format is cell-based. The conditions noted are these: in vitro assay correlated to MCF-7 assay through common reference compounds.

On to `Oc1ccc(Cc2ccc(O)cc2)cc1` [Bisphenol F], for which the “Log RPE” value in assay [1] is on record as −2.

Turning to `C[C@]12CC[C@@H]3c4ccc(O)cc4CC[C@H]3[C@@H]1CC[C@@H]2O` [17β-estradiol], the “Log RPE” value in assay [1] (logarithmic (base 10) Relative Proliferative Effect relative to 17-beta estradiol, cell proliferation measured as total DNA, values 'expected or measured') turned out to be 2.00.

As to `CC(C)(C)c1cc(O)c(C(C)(C)C)cc1O` [Structure 12, 2,5-di-t-butylhydroquinone], the estrogenic activity result in assay [2] is reported as “do not exhibit appreciable estrogenic activity”.

Consider `CC(C)(C)c1cc(Cc2cc(C(C)(C)C)c(O)c(C(C)(C)C)c2)cc(C(C)(C)C)c1O` [Structure 8, 4,4′-methylenebis(2,6-di-t-butylphenol)], for which, in assay [2], the estrogenic activity entry is on record as “do not exhibit appreciable estrogenic activity”.

With `Cc1cc(Cc2cc(C)c(O)c(C)c2)cc(C)c1O` [Structure 6, 4,4′-methylenebis(2,6-dimethylphenol)], in assay [2], the estrogenic activity entry was “do not exhibit appreciable estrogenic activity”.

With `Cc1cc(Cc2cc(C)cc(C(C)(C)C)c2O)c(O)c(C(C)(C)C)c1` [Structure 9], in assay [2], the estrogenic activity entry was “do not exhibit appreciable estrogenic activity”.

Turning to `CCCC(c1cc(C(C)(C)C)c(O)cc1C)c1cc(C(C)(C)C)c(O)cc1C` [Structure 7, 4,4′-butylidenebis(2-t-butyl-5-methylphenol)], in assay [2], the estrogenic activity result is given as “do not exhibit appreciable estrogenic activity”.
